This assay deals with interaction between p53 and MDM2 proteins (recombinant GST-tagged MDM2) (Homo sapiens, UniProt Q00987). The assay can be described thus: HTRF assay of inhibition of the p53-MDM2 interaction (GST-MDM2 / biotinylated p53 peptide).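 Further: FRET read-out from Eu-labelled anti-GST antibody to streptavidin-APC, with 90 nM N-terminally biotinylated p53 peptide and 160 ng/ml GST-MDM2 in Tris-borate saline containing 1 mM DTT, 384-well format.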 It counts as binding. The note with it: HTRF, 0.02% BSA, 37° C. 1 h.
Sequence of interaction between p53 and MDM2 proteins (recombinant GST-tagged MDM2) (Q00987 whole entry): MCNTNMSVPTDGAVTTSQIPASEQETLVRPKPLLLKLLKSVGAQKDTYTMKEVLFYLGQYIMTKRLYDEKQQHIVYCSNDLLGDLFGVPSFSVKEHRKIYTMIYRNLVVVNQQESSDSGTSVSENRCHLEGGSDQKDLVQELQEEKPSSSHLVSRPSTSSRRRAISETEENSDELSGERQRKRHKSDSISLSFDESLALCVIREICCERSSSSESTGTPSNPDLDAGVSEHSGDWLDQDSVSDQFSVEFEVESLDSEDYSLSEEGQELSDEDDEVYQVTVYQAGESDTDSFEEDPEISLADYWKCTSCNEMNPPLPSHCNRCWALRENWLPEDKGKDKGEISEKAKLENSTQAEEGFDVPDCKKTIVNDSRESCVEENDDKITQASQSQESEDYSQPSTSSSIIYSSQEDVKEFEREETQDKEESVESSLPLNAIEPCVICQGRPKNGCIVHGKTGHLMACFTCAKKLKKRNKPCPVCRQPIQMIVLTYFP

Structures are written as SMILES. Structures can show the parent of a compound that is named as a salt.

Take `COc1cc(C(=O)On2nnc3cccnc32)ccc1NC(=O)[C@@H]1N[C@@H](CC(C)(C)C)[C@](C#N)(c2ccc(Cl)cc2F)[C@H]1c1cccc(Cl)c1F` [Example 20, 4-{[(2R,3S,4R,5S)-4-(4-Chloro-2-fluoro-phenyl)-3-(3-chloro-2-fluoro-phenyl)-4-cyano-5-(2,2-dimethyl-propyl)-pyrrolidine-2-carbonyl]-amino}-3-methoxy-benzoic acid [1,2,3]triazolo[4,5-b]pyridin-3-yl ester]: the IC50 came to 6.54 nM.

In the case of `COC(=O)COC(=O)c1ccc(NC(=O)[C@@H]2N[C@@H](CC(C)(C)C)[C@](C#N)(c3ccc(Cl)cc3F)[C@H]2c2cccc(Cl)c2F)c(OC)c1` [Example 35, 4-{[(2R,3S,4R,5S)-4-(4-Chloro-2-fluoro-phenyl)-3-(3-chloro-2-fluoro-phenyl)-4-cyano-5-(2,2-dimethyl-propyl)-pyrrolidine-2-carbonyl]-amino}-3-methoxy-benzoic acid methoxycarbonylmethyl ester], the IC50 amounted to 12.5 nM.

Regarding `COCCOCCOCCOC(=O)COC(=O)c1ccc(NC(=O)[C@@H]2N[C@@H](CC(C)(C)C)[C@](C#N)(c3ccc(Cl)cc3F)[C@H]2c2cccc(Cl)c2F)c(OC)c1` [Example 72, 4-{[(2R,3S,4R,5S)-4-(4-Chloro-2-fluoro-phenyl)-3-(3-chloro-2-fluoro-phenyl)-4-cyano-5-(2,2-dimethyl-propyl)-pyrrolidine-2-carbonyl]-amino}-3-methoxy-benzoic acid 2-[2-(2-methoxy-ethoxy)-ethoxy]-ethoxycarbonylmethyl ester], the IC50 came out at 20.3 nM.

Consider `COc1cc(C(=O)N(C)C[C@H](O)[C@@H](O)[C@H](O)[C@H](O)CO)ccc1NC(=O)[C@@H]1N[C@@H](CC(C)(C)C)[C@](C#N)(c2ccc(Cl)cc2F)[C@H]1c1cccc(Cl)c1F` [Example 55, (2R,3S,4R,5S)-4-(4-Chloro-2-fluoro-phenyl)-3-(3-chloro-2-fluoro-phenyl)-4-cyano-5-(2,2-dimethyl-propyl)-pyrrolidine-2-carboxylic acid {2-methoxy-4-[methyl-((2S,3R,4R,5R)-2,3,4,5,6-pentahydroxy-hexyl)-carbamoyl]-phenyl}-amide, hydrochloride], for which the IC50 was 9.1 nM.

With `COc1cc(C(=O)OCCN2CCN(CCO)CC2)ccc1NC(=O)[C@@H]1N[C@@H](CC(C)(C)C)[C@](C#N)(c2ccc(Cl)cc2F)[C@H]1c1cccc(Cl)c1F` [Example 61, 4-{[(2R,3S,4R,5S)-4-(4-Chloro-2-fluoro-phenyl)-3-(3-chloro-2-fluoro-phenyl)-4-cyano-5-(2,2-dimethyl-propyl)-pyrrolidine-2-carbonyl]-amino}-3-methoxy-benzoic acid 2-[4-(2-hydroxy-ethyl)-piperazin-1-yl]-ethyl ester], the IC50 worked out at 11.4 nM.

On to `COc1cc(C(=O)OCCOCCOCCOCCOCCOCCOCCOCCO)ccc1NC(=O)[C@@H]1N[C@@H](CC(C)(C)C)[C@](C#N)(c2ccc(Cl)cc2F)[C@H]1c1cccc(Cl)c1F` [Example 42, 4-{[(2R,3S,4R,5S)-4-(4-Chloro-2-fluoro-phenyl)-3-(3-chloro-2-fluoro-phenyl)-4-cyano-5-(2,2-dimethyl-propyl)-pyrrolidine-2-carbonyl]-amino}-3-methoxy-benzoic acid, 2-(2-{2-[2-(2-{2-[2-(2-hydroxy-ethoxy)-ethoxy]-ethoxy}-ethoxy)-ethoxy]-ethoxy}-ethoxy)-ethyl ester, trifluoroacetate salt], for which the IC50 was 22.2 nM.

In the case of `COc1cc(C(=O)OCCO)ccc1NC(=O)[C@@H]1N[C@@H](CC(C)(C)C)[C@](C#N)(c2ccc(Cl)cc2F)[C@H]1c1cccc(Cl)c1F` [Example 1, 2-Hydroxyethyl 4-((2R,3S,4R,5S)-3-(3-chloro-2-fluorophenyl)-4-(4-chloro-2-fluorophenyl)-4-cyano-5-neopentylpyrrolidine-2-carboxamido)-3-methoxybenzoate], the IC50 worked out at 11.1 nM.
